Common to all, as to assay type: biochemical
One assay concerns the target T1, PI3K alfa (Homo sapiens, UniProt P42336).
T1 construct: for the p110-a subunit (with a deletion of the first 20 amino acids); His tag (C); made in house; host or cells: baculovirus; Tn5 (Trichoplusia ni) or TiniPro insect cells
Briefly: PI3 kinase assay (Kinase-Glo luminescence), PI3K alfa. The conditions noted are these: Enzymatic Data; read-out: PI3K alfa IC50 [umol]. The method, boiled down:
(§1)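 Recombinant PI3K constructs (alfa 10 nM, delta 10 nM, gamma 150 nM) with 1 μM ATP and 10 μg/mL phosphatidylinositol in Tris pH 7.5, MgCl2, NaCl, CHAPS, DTT; 60 min (alfa, delta) or 120 min (gamma) at room temperature. ATP depletion read by Kinase-Glo luminescence; IC50 from 4-parameter logistic fit over 8 concentrations.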
(Kinase-Glo reads ATP consumption through a luciferase reaction.)

For a further assay, the target named is T2, PI3K beta (Homo sapiens, UniProt P42338).
T2 construct: for the full-length p110-b subunit are generated and fused by overlapping PCR; His tag (C); made in house; host or cells: baculovirus; Tn5 (Trichoplusia ni) or TiniPro insect cells
T2 sequence (P42338 with tags, fused parts or gaps limits assumed): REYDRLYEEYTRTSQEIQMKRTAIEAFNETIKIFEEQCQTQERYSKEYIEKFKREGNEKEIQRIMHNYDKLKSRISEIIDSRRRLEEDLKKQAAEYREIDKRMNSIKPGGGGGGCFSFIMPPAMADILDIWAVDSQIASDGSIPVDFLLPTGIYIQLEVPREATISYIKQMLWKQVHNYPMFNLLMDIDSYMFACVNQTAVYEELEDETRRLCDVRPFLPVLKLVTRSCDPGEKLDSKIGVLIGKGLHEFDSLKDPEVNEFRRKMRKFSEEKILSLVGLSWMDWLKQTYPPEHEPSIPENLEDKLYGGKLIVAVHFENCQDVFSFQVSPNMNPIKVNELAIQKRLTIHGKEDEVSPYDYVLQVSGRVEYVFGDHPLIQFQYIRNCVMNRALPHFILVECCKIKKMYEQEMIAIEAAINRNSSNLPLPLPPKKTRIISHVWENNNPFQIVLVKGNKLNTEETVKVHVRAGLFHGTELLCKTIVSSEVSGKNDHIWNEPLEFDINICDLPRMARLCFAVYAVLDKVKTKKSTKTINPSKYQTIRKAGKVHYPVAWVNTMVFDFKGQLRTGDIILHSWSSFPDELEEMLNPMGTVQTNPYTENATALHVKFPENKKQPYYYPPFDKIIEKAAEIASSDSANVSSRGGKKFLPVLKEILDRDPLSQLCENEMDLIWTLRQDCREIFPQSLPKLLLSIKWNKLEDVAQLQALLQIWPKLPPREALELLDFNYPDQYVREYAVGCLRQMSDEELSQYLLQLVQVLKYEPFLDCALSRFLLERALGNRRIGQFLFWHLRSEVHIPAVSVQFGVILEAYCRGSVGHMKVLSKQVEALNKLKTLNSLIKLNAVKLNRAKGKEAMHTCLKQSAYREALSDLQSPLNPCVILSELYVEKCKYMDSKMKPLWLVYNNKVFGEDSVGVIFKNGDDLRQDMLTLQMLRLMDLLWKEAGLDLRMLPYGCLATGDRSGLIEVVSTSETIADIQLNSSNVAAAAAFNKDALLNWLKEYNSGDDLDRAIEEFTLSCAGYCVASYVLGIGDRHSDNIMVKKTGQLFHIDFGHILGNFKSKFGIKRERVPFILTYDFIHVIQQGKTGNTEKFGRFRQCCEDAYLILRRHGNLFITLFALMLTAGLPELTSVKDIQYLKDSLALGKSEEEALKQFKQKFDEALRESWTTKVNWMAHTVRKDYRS
Briefly: PI3 kinase assay (Kinase-Glo luminescence), PI3K beta. The conditions noted are these: Enzymatic Data; read-out: PI3K beta IC50 [umol]. The method, boiled down: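 PI3Kβ (25 nM, BV-949) with 10 μg/mL phosphatidylinositol in Tris pH 7.5/MgCl2/NaCl/CHAPS/DTT buffer; reaction started with 1 μM ATP, 60 min at room temperature. ATP depletion read by Kinase-Glo luminescence; 8-point dilutions, IC50 by four-parameter logistic fit.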

The target of the next assay is T3, PI3K delta (Homo sapiens, UniProt O00329).
T3 construct: for the full-length p110-d subunit are generated and fused by overlapping PCR; His tag (C); made in house; host or cells: baculovirus; Tn5 (Trichoplusia ni) or TiniPro insect cells
T3 sequence (O00329 with tags, fused parts or gaps limits assumed): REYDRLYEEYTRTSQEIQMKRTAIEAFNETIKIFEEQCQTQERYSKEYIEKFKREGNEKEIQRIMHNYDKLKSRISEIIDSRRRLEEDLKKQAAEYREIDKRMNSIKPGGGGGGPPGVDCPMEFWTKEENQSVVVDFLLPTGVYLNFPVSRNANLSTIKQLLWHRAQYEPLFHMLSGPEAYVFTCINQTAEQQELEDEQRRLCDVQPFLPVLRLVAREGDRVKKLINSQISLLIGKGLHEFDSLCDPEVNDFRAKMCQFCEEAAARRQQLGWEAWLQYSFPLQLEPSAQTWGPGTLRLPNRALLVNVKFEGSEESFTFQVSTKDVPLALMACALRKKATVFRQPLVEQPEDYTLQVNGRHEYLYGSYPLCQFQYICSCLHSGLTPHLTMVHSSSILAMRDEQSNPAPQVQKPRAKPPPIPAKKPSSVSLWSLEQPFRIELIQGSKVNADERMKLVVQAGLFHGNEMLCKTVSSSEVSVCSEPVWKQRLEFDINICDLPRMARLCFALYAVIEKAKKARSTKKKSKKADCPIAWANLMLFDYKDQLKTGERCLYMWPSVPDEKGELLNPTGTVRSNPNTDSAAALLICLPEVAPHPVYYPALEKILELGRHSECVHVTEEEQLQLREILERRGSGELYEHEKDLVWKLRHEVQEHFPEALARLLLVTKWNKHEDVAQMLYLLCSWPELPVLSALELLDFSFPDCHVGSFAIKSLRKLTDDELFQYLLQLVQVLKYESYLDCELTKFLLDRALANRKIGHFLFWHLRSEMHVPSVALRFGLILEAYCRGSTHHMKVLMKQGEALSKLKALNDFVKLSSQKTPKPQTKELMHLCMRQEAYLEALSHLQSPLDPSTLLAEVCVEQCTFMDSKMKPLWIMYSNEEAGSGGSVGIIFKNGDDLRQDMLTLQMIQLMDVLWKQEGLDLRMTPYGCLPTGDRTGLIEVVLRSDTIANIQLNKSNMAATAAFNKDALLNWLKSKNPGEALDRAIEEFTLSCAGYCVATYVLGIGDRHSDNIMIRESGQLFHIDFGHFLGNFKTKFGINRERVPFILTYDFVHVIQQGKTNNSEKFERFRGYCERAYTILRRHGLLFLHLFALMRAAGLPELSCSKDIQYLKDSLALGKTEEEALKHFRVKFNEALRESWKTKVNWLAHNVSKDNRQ
Briefly: PI3 kinase assay (Kinase-Glo luminescence), PI3K delta. The conditions noted are these: Enzymatic Data; read-out: PI3K delta IC50 [umol]. The method, boiled down:
as §1

In a further assay the target is T4, PI3K gamma (Homo sapiens, UniProt P48736).
T4 construct: PI3Kγ BV-950 p110g(D144aa)-C-Term His Tag; His tag (C); made in house; host or cells: construct from the Roger Williams lab (MRC LMB) in pVL1393; baculovirus; Tn5 (Trichoplusia ni) or TiniPro insect cells
T4 sequence (P48736 144-1102 limits assumed): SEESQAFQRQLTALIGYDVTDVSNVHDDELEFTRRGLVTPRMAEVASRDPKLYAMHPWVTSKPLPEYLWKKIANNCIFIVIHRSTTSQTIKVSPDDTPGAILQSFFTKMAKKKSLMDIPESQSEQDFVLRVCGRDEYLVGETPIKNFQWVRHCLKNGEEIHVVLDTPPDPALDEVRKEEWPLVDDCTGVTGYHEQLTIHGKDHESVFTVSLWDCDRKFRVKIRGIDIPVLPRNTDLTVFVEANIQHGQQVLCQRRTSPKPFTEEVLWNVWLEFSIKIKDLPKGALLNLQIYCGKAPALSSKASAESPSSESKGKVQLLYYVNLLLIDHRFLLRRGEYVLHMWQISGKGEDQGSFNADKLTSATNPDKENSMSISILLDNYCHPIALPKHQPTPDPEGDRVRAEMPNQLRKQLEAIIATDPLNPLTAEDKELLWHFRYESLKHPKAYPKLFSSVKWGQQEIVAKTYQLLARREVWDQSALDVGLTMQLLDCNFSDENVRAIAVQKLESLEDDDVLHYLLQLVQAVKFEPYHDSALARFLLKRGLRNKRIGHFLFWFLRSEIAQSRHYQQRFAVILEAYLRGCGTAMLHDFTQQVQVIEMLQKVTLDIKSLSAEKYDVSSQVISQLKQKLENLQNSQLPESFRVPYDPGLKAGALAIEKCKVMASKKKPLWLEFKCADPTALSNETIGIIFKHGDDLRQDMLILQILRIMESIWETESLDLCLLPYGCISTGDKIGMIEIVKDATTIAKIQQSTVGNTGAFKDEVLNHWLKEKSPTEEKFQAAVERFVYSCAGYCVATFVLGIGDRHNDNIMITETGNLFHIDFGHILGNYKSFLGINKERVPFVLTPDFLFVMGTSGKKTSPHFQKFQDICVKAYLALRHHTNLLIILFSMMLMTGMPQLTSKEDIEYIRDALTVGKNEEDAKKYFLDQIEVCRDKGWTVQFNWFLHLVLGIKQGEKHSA
The assay is described as follows: PI3 kinase assay (Kinase-Glo luminescence), PI3K gamma. Conditions: Enzymatic Data; read-out: PI3K gamma IC50 [umol]. An outline of the steps: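 Percent inhibition at eight concentrations (typically 10 to 0.003 […]) fitted to a four-parameter logistic model to give IC50. Reaction initiated with ATP; final ATP 1 μM and phosphatidylinositol 10 μg/mL; ATP consumption read by Kinase-Glo luminescence.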

Structures are written as SMILES. Where only a bound is given, the exact number is not on record here.

T1 sequence (P42336 with tags, fused parts or gaps limits assumed): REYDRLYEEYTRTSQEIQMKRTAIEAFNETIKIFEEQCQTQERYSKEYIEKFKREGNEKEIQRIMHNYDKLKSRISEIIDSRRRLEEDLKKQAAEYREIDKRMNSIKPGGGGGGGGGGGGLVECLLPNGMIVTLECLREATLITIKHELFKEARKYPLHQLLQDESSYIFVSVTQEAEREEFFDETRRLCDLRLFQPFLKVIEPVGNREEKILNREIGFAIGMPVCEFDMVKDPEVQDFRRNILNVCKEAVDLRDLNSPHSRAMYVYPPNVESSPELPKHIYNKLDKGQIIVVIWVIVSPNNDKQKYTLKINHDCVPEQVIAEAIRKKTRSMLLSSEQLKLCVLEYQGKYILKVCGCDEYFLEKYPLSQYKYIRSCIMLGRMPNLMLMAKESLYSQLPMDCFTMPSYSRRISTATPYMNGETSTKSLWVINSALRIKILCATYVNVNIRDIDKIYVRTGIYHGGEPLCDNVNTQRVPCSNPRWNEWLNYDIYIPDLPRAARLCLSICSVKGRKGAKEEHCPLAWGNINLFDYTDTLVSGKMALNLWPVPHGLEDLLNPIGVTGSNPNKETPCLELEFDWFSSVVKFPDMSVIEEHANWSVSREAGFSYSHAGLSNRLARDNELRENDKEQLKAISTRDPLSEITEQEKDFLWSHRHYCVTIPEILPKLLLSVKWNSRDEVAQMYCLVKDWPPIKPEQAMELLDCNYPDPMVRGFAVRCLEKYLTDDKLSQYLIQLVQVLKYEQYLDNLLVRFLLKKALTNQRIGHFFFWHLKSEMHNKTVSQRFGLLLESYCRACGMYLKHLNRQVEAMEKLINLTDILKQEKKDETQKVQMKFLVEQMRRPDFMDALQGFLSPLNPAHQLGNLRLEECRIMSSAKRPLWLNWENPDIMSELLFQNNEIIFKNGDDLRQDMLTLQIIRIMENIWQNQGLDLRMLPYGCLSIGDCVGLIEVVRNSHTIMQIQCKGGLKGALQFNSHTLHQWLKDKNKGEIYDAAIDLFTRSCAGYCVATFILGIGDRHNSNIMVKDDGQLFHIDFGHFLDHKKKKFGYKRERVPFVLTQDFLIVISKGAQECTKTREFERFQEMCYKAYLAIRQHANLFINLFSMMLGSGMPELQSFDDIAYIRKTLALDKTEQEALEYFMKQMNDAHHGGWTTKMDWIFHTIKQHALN

On to `COc1cc(-c2cnc3ccc(-c4cnc(N)c(C(F)(F)F)c4)nn23)ccc1C(=O)O` [Example 109, 4-[6-(6-Amino-5-trifluoromethyl-pyridin-3-yl)-imidazo [1,2-b]pyridazin-3-yl]-2-methoxy-benzoic acid], for which the IC50 at PI3K alfa came to 6 nM; at PI3K beta, 62 nM; on PI3K delta, 10 nM; at PI3K gamma, 405 nM.

In the case of `COc1cc(-c2ccc3ncc(-c4cnc5[nH]ccc5c4)n3n2)ccc1OCCN1CCCC1=O` [Example 110, 1-(2-{2-Methoxy-4-[3-(1H-pyrrolo [2,3-b]pyridin-5-yl)-imidazo [1,2-b]pyridazin-6-yl]-phenoxy}-ethyl)-pyrrolidin-2-one], the IC50 at PI3K alfa amounted to 40 nM; at PI3K beta, 1180 nM; on PI3K delta, 77 nM; at PI3K gamma, 1370 nM.

As for `COc1cc(-c2ccc3ncc(-c4ccc(S(=O)(=O)CCN5CCOCC5)cc4)n3n2)ccc1OCCN1CCCC1=O` [Example 111, 1-[2-(2-Methoxy-4-{3-[4-(2-morpholin-4-yl-ethane-sulfonyl)-phenyl]-imidazo [1,2-b]pyridazin-6-yl}-phenoxy)-ethyl]-pyrrolidin-2-one], the IC50 on PI3K alfa is 954 nM; on PI3K beta, 7550 nM; at PI3K delta it was 427 nM; at PI3K gamma, over 9100 nM.

Regarding `Nc1ncc(-c2ccc3ncc(-c4ccc(C(=O)N5CCN(Cc6cccnc6)CC5)c(F)c4)n3n2)cc1C(F)(F)F` [Example 112, {4-[6-(6-Amino-5-trifluoro-methyl-pyridin-3-yl)-imidazo [1,2-b]pyridazin-3-yl]-2-fluoro-phenyl}-(4-pyridin-3-ylmethyl-piperazin-1-yl)-methanone], the IC50 at PI3K alfa was 12 nM; on PI3K beta, 623 nM; on PI3K delta, 14 nM; at PI3K gamma, 956 nM.

`Nc1ncc(-c2ccc3ncc(-c4ccc(C(=O)N5CCN(CCO)CC5)c(F)c4)n3n2)cc1C(F)(F)F` [Example 113, {4-[6-(6-Amino-5-trifluoro-methyl-pyridin-3-yl)-imidazo [1,2-b]pyridazin-3-yl]-2-fluoro-phenyl}-[4-(2-hydroxy-ethyl)-piperazin-1-yl]-methanone]: the IC50 on PI3K alfa came to 11 nM; at PI3K beta it was 68 nM; at PI3K delta it was 13 nM; at PI3K gamma it was 555 nM.

In the case of `Nc1ncc(-c2ccc3ncc(-c4ccc(C(=O)N5CCN(Cc6ccc(F)cc6)CC5)c(F)c4)n3n2)cc1C(F)(F)F` [Example 114, {4-[6-(6-Amino-5-trifluoromethyl-pyridin-3-yl)-imidazo [1,2-b]pyridazin-3-yl]-2-fluoro-phenyl}-[4-(4-fluoro-benzyl)-piperazin-1-yl]-methanone], the IC50 amounted to 140 nM at PI3K alfa, 4070 nM on PI3K beta, 829 nM on PI3K delta and 1440 nM at PI3K gamma.

Turning to `COc1cc(-c2cnc3ccc(-c4cnc(N)c(C(F)(F)F)c4)nn23)ccc1C(=O)NCCN1CCOCC1` [Example 115, 4-[6-(6-Amino-5-trifluoro-methyl-pyridin-3-yl)-imidazo [1,2-b]pyridazin-3-yl]-2-methoxy-N-(2-morpholin-4-yl-ethyl)-benzamide], the IC50 was found to be 9 nM at PI3K alfa, 78 nM at PI3K beta, 22 nM at PI3K delta and 397 nM at PI3K gamma.

`COc1cc(-c2cnc3ccc(-c4cnc(N)c(C(F)(F)F)c4)nn23)ccc1C(=O)N1CCN(Cc2ccccn2)CC1` [Example 116, {4-[6-(6-Amino-5-trifluoro-methyl-pyridin-3-yl)-imidazo [1,2-b]pyridazin-3-yl]-2-methoxy-phenyl}-(4-pyridin-2-ylmethyl-piperazin-1-yl)-methanone]: the IC50 was 3 nM on PI3K alfa, 42 nM at PI3K beta, 4 nM at PI3K delta and 410 nM on PI3K gamma.

As to `COc1cc(-c2cnc3ccc(-c4cnc(N)c(C(F)(F)F)c4)nn23)ccc1C(=O)N1CCN(Cc2cccnc2)CC1` [Example 117, {4-[6-(6-Amino-5-trifluoro-methyl-pyridin-3-yl)-imidazo [1,2-b]pyridazin-3-yl]-2-methoxy-phenyl}-(4-pyridin-3-ylmethyl-piperazin-1-yl)-methanone], the IC50 came to 9 nM at PI3K alfa, 217 nM on PI3K beta, 10 nM at PI3K delta and 446 nM at PI3K gamma.

`COc1cc(-c2cnc3ccc(-c4cnc(N)c(C(F)(F)F)c4)nn23)ccc1C(=O)N1CCN(CCN2CCOCC2)CC1` [Example 118, {4-[6-(6-Amino-5-trifluoro-methyl-pyridin-3-yl)-imidazo [1,2-b]pyridazin-3-yl]-2-methoxy-phenyl}-[4-(2-morpholin-4-yl-ethyl)-piperazin-1-yl]-methanone]: the IC50 at PI3K alfa was determined as 8 nM; at PI3K beta, 178 nM; on PI3K delta, 6 nM; on PI3K gamma, 405 nM.

As for `COc1cc(-c2cnc3ccc(-c4cnc(N)c(C(F)(F)F)c4)nn23)ccc1C(=O)N1CCN(CC(=O)N2CCOCC2)CC1` [Example 119, 2-(4-{4-[6-(6-Amino-5-trifluoro-methyl-pyridin-3-yl)-imidazo [1,2-b]pyridazin-3-yl]-2-methoxy-benzoyl}-piperazin-1-yl)-1-morpholin-4-yl-ethanone], the IC50 at PI3K alfa was determined as 9 nM; on PI3K beta it was 137 nM; at PI3K delta, 13 nM; at PI3K gamma it was 406 nM.

`COc1cc(-c2cnc3ccc(-c4cnc(N)c(C(F)(F)F)c4)nn23)ccc1C(=O)N1CCN(c2ccccn2)CC1` [Example 120, {4-[6-(6-Amino-5-trifluoro-methyl-pyridin-3-yl)-imidazo [1,2-b]pyridazin-3-yl]-2-methoxy-phenyl}-(4-pyridin-2-yl-piperazin-1-yl)-methanone]: the IC50 is 16 nM at PI3K alfa, 389 nM on PI3K beta, 25 nM at PI3K delta and 757 nM on PI3K gamma.

Consider `Nc1ncc(-c2ccc3ncc(-c4ccc(S(N)(=O)=O)cc4)n3n2)cc1C(F)(F)F` [Example 121, 4-[6-(6-Amino-5-trifluoro-methyl-pyridin-3-yl)-imidazo [1,2-b]pyridazin-3-yl]-benzene-sulfon-amide], for which the IC50 on PI3K alfa turned out to be 24 nM; at PI3K beta, 19 nM; at PI3K delta, 26 nM; at PI3K gamma it was 3310 nM.

Take `Nc1ncc(-c2cnc3ccc(-c4ccc(C(=O)NCCN5CCOCC5)cc4)nn23)cc1C(F)(F)F` [Example 122, 4-[3-(6-Amino-5-trifluoro-methyl-pyridin-3-yl)-imidazo [1,2-b]pyridazin-6-yl]-N-(2-morpholin-4-yl-ethyl)-benzamide]: the IC50 at PI3K alfa amounted to 43 nM; at PI3K beta, 986 nM; on PI3K delta it was 199 nM; on PI3K gamma, 1400 nM.

For the compound `Nc1ncc(-c2ccc3ncc(-c4ccc(S(=O)(=O)NCCN5CCOCC5)cc4)n3n2)cc1C(F)(F)F` [Example 124, 4-[6-(6-Amino-5-trifluoro-methyl-pyridin-3-yl)-imidazo [1,2-b]pyridazin-3-yl]-N-(2-morpholin-4-yl-ethyl)-benzene-sulfonamide], the IC50 at PI3K alfa worked out at 18 nM; at PI3K beta it was 157 nM; on PI3K delta, 29 nM; on PI3K gamma, 529 nM.

With `COc1cc(-c2cnc3ccc(-c4cnc(N)c(C(F)(F)F)c4)nn23)ccc1C(=O)NCCCN1CCOCC1` [Example 125, 4-[6-(6-Amino-5-trifluoro-methyl-pyridin-3-yl)-imidazo [1,2-b]pyridazin-3-yl]-2-methoxy-N-(3-morpholin-4-yl-propyl)-benzamide], the IC50 on PI3K alfa came out at 26 nM; on PI3K beta, 182 nM; on PI3K delta, 55 nM; on PI3K gamma it was 490 nM.

For the compound `Nc1ncc(-c2ccc3ncc(-c4cnc5c(ccn5CCN5CCOCC5)c4)n3n2)cc1C(F)(F)F` [Example 126, 5-{3-[1-(2-Morpholin-4-yl-ethyl)-1H-pyrrolo [2,3-b]pyridin-5-yl]-imidazo [1,2-b]pyridazin-6-yl}-3-trifluoro-methyl-pyridin-2-ylamine], the IC50 was 66 nM on PI3K alfa, 139 nM at PI3K beta, 22 nM at PI3K delta and 1030 nM on PI3K gamma.

`Nc1ncc(-c2ccc3ncc(-c4ccc(C(=O)N5CCN(Cc6cccnc6)CC5)cc4)n3n2)cc1C(F)(F)F` [Example 127, {4-[6-(6-Amino-5-trifluoro-methyl-pyridin-3-yl)-imidazo [1,2-b]pyridazin-3-yl]-phenyl}-(4-pyridin-3-ylmethyl-piperazin-1-yl)-methanone]: the IC50 was found to be 19 nM at PI3K alfa, 416 nM on PI3K beta, 59 nM on PI3K delta and 1050 nM on PI3K gamma.
